From US20100267682A1, “CORTICOSTEROIDS TO TREAT EPOTHILONE OR EPOTHILONE DERIVATIVE INDUCED DIARRHEA” (NOVARTIS AG, priority 2007, published 2010)
Read-outs that look alike come from different tables or passages of the source. Marks after values point to notes of the source that are not given here.

Legend:
BDix rats = assay: Patupilone-induced diarrhea scoring in BDix rats (grade 0-3, AUC days 3-7, days > G1); settings: for Diarrh: Days > G1: BDix rats with s.c. A15 glioma; for Diarrhoea reduction (T/C) >G1D3-D6 / Diarrhoea reduction (T/C) AUCD3-D7: PAT 1.5 mg/kg i.v. D0, vs patupilone alone
Protocol: They are idendified by ear markings and kept in groups of 4 under normal conditions with access to food and water as libitum. Tumors: Rat glioma cells, A15 (aks 1a2r) are obtained from ECACC. […] Tumors are induced by concentrating 5×10^5 cells in 50 μl and injecting s.c. in the flank of the rats. […] Generally experiments begin when the tumors are >150 mm^3. Patupilone: Patupilone is weighed and dissolved in a vehicle of 30% PEG-300 and 70% normal saline to a final concentration of 1 mg/ml. Patupilone is injected i.v. in the tail vein as a bolus of 2-3 seconds at a dose of 1.5 mg/kg once. […] The suspension is sonicated for 30 min to achieve a milky suspension for oral administration (5 mL/kg).
Although prednisolone is administered orally daily, the dose and number of days of treatment are different in each experiment. The doses are 1, 3, 7 or 10 mg/kg which is roughly equivalent to 6, 17, 40 and 60 mg/m^2, respectively. When prednisolone and patupilone treatment are on the same day, prednisolone is administered 2-4 hours after treatment with patupilone.
Diarrhea: Diarrhea is monitored daily from day 3 post injection fo patupilone which is on day 0. Diarrhea is scored as follows:
Grade 1: soft but formed stool
Grade 2: soft unformed stool
Thus, each rat on each day of diarrhea (5 days from day […]) is graded 0-3 which allows a semi-quantitative analysis of the effects of different treatment. Two different abalytical methods are applied using a) area under the curve (AUCdays3-7) calculated using the trapezoidal rule as applied by Graphpad Prism (v. 4.0 for Windows) and b) the numbere of days in which diarrhea is graded >1. It is believed that the second approach is a more realistic comparison to the clinic since as described above G≦1 is not really diarrhea, and in the clinic, the major issue is avoiding severe diarrhea, i.e. clinical grades of ≧2.
(§1) After 10 days the rats are treated on day-0 once with patupilone (PAT) at 1.5 mg/kg i.v. bolus (G2, G4-G7) or PAT-vehicle (G1 & G3). All rats treated with prednisolone (Predn) received the drug p.o. at 7 mg/kg for 5 consecutive days (except G7 for 3 days only) either 1-day before (G4), on the same day (G7), 1-day after patupilone (G6) or 3-days after patupilone (G5).
Rats receive 7 mg/kg prednisolone (Predn) or the Predn-vehicle p.o. for 5 consecutive days (except G3 for 3 days) starting either on Day-0 (G1-G3) or after 24 hr (D+1) or 24 hr prior to PAT (D−1).

[1] = Protocol: They are idendified by ear markings and kept in groups of 4 under normal conditions with access to food and water as libitum. Tumors: Rat glioma cells, A15 (aks 1a2r) are obtained from ECACC. […] Tumors are induced by concentrating 5×10^5 cells in 50 μl and injecting s.c. in the flank of the rats. […] Generally experiments begin when the tumors are >150 mm^3. Patupilone: Patupilone is weighed and dissolved in a vehicle of 30% PEG-300 and 70% normal saline to a final concentration of 1 mg/ml. Patupilone is injected i.v. in the tail vein as a bolus of 2-3 seconds at a dose of 1.5 mg/kg once.
Efficacy and Tolerability: Tumor volume (Tvol) is quantified by change in tumor volume (endpoint vs. starting value in mm^3). As the T/CTVol, i.e. [ΔTVOldrug/ΔTVolvehicle]. The body weight of the rats is measured three times per week.
as §1, with “(G5). […]” for “(G5).”

Rat glioma cells, A15 = assay: BDix rat tumor model: s.c. A15 glioma tumour response; assay type: in vivo; settings: for T/C Day-14: ΔTVol drug/ΔTVol vehicle
From the text: As the T/CTVol, i.e. [ΔTVOldrug/ΔTVolvehicle].

[2] = Total PAT exposure (AUC) in blood, tissues and tumor of BDix rats; assay type: in vivo, rat; settings: for AUC24-336 hr (total PAT exposure): Example 4, mean ± SD, n = 3, PAT 1.5 mg/kg i.v. day 0, G2 Predn-vehicle or G4 Predn 7 mg/kg p.o. 5 days (D-1)
Protocol: G4 received prednisolone (Predn) p.o. at 7 mg/kg for 5 consecutive days while G2 received Predn-vehicle only for 5 days.

[3] = test system: HRPC (hormone-refractory prostate cancer) patients; assay: Clinical trial in HRPC patients: patupilone-induced diarrhea; assay type: in vivo, human; settings: 10 mg (ca. 5.5 mg/m^2) prednisone per day
Protocol: HRPC (hormone-refractory prostate cancer) patients in a clinical trial are getting 10 mg (ca. 5.5 mg/m^2) prednisone per day.

[4] = Example 1, BDix rats, PAT 1.5 mg/kg i.v. once + Predn vehicle p.o. 7 days
[5] = Example 3 G2, PAT 1.5 mg/kg i.v. day 0 + Predn vehicle
[6] = Example 5 G1, BDix rats, PAT 1.5 mg/kg i.v. Day 0 + Veh-Predn p.o. 5 days (D0)
[7] = Example 2, BDix rats with s.c. A15 glioma, PAT 1.5 mg/kg i.v. once + Predn vehicle p.o. 7 days
[8] = Example 3 G2, BDix rats with s.c. A15 glioma, PAT 1.5 mg/kg i.v. day 0 + Predn vehicle
[9] = Example 1, Predn 1 mg/kg (6 mg/m^2) p.o. 7-days from D0
[10] = Example 1, Predn 3 mg/kg (17 mg/m^2) p.o. 7-days from D0
[11] = Example 1, Predn 10 mg/kg (60 mg/m^2) p.o. 7-days from D0
[12] = Example 2, Predn 3 mg/kg (17 mg/m^2) p.o. 7-days from D0
[13] = Example 2, Predn 10 mg/kg (60 mg/m^2) p.o. 7-days from DO
[14] = Example 3, Predn 7 mg/kg (40 mg/m^2) p.o. 3-days from D0
[15] = Example 3, Predn 7 mg/kg (40 mg/m^2) p.o. 5-days from D+1
[16] = Example 3, Predn 7 mg/kg (40 mg/m^2) p.o. 5-days from D−1
[17] = Example 3, Predn 7 mg/kg (40 mg/m^2) p.o. 7-days from D+3
[18] = Example 3 G3, Predn 7 mg/kg p.o. 5 days + PAT vehicle
[19] = Example 5, Predn 7 mg/kg (40 mg/m^2) p.o. 3-days from D0
[20] = Example 5, Predn 7 mg/kg (40 mg/m^2) p.o. 5-days from D0
[21] = Example 5, Predn 7 mg/kg (40 mg/m^2) p.o. 5-days from D+1
[22] = Example 5, Predn 7 mg/kg (40 mg/m^2) p.o. 5-days from D−1
[23] = Example 3 G3, BDix rats with s.c. A15 glioma, Predn 7 mg/kg p.o. 5 days + PAT vehicle

Compound: C/C(=C\c1csc(C)n1)[C@@H]1C[C@@H]2O[C@]2(C)CCC[C@H](C)[C@H](O)[C@@H](C)C(=O)C(C)(C)[C@@H](O)CC(=O)O1 [PAT, epothilone B]
- Diarrhoea: Days > G1 (BDix rats; [4]): 2.7 ± 0.2 days
- Diarrh: Days > G1 (BDix rats; Example 2, PAT 1.5 mg/kg i.v. once + Predn vehicle p.o. 7 days): 1.7 ± 0.3 days
- Diarrh: Days > G1 (BDix rats; [5]): 2.9 ± 0.3 days
- Diarrhoea: Days > G1 (BDix rats; [6]): 1.5 ± 0.3 days
- BW (g) Day-7 [1, 4]: 150 ± 3 g
- Survival [1, 4]: 6/6
- Δ% BW Day-7 [1, 4]: −16.3 ± 1.3%
- ΔBW (g) Day-7 [1, 4]: -29.5 ± 3.1 g
- BW (g) Day-6 [1, 7]: 186 ± 3 g
- Survival [1, 7]: 6/6
- Δ% BW Day-13 [1, 7]: −4.1 ± 2.1%
- BW (g) Day-14 [1, 8]: 179 ± 4 g
- Survival [1, 8]: 8/8
- Δ% BW Day-7 [1, 8]: −18.6 ± 1.3 %
- Δ% BW Day-14 [1, 8]: −4.4 ± 1.8 %
- BW (g) Day-7 [1, 6]: 163 ± 3 g
- Survival [1, 6]: 8/8
- Δ% BW Day-7 [1, 6]: −12.0 ± 1.2%
- Tumour Wt (Rat glioma cells, A15; [7]): 0.83 ± 0.17 g
- ΔTVol Day-14 (Rat glioma cells, A15; [8]): 277 ± 37
- T/C Day-14 (Rat glioma cells, A15; [5]): 0.35*
- AUC24-336 hr (total PAT exposure) ([2]; Blood): 1891 ± 344 ng/h/mL
- AUC24-336 hr (total PAT exposure) ([2]; Brain): 64948 ± 6237 ng/h/mL
- AUC24-336 hr (total PAT exposure) ([2]; Caecum): 53911 ± 10512 ng/h/mL
- AUC24-336 hr (total PAT exposure) ([2]; Jejunum): 57045 ± 3988 ng/h/mL
- AUC24-336 hr (total PAT exposure) ([2]; Liver): 56278 ± 9988 ng/h/mL
- AUC24-336 hr (total PAT exposure) ([2]; Tumor): 142437 ± 36429 ng/h/mL

Compound: C[C@]12C=CC(=O)C=C1CC[C@@H]1[C@@H]2[C@@H](O)C[C@@]2(C)[C@H]1CC[C@]2(O)C(=O)CO [Predn, prednisolone]
- Effect on diarrhea caused by an efficacious dose of patupilone (BDix rats; BDix rats, summary of Examples 1-6): able to reproducibly reduce diarrhea
- Diarrhoea reduction (T/C) >G1D3-D6 (BDix rats; [9]): 0.81
- Diarrhoea reduction (T/C) AUCD3-D7 (BDix rats; [9]): 0.85
- Diarrhoea reduction (T/C) >G1D3-D6 (BDix rats; [10]): 0.13
- Diarrhoea reduction (T/C) AUCD3-D7 (BDix rats; [10]): 0.30
- Diarrhoea reduction (T/C) >G1D3-D6 (BDix rats; [11]): 0.06
- Diarrhoea reduction (T/C) AUCD3-D7 (BDix rats; [11]): 0.20
- Diarrhoea reduction (T/C) >G1D3-D6 (BDix rats; [12]): 0
- Diarrhoea reduction (T/C) AUCD3-D7 (BDix rats; [12]): 0.14
- Diarrhoea reduction (T/C) >G1D3-D6 (BDix rats; [13]): 0
- Diarrhoea reduction (T/C) AUCD3-D7 (BDix rats; [13]): 0.01
- Diarrhoea reduction (T/C) >G1D3-D6 (BDix rats; [14]): 0.57
- Diarrhoea reduction (T/C) AUCD3-D7 (BDix rats; [14]): 0.60
- Diarrhoea reduction (T/C) >G1D3-D6 (BDix rats; [15]): 0.52
- Diarrhoea reduction (T/C) AUCD3-D7 (BDix rats; [15]): 0.57
- Diarrhoea reduction (T/C) >G1D3-D6 (BDix rats; [16]): 0.65
- Diarrhoea reduction (T/C) AUCD3-D7 (BDix rats; [16]): 0.61
- Diarrhoea reduction (T/C) >G1D3-D6 (BDix rats; [17]): 0.57
- Diarrhoea reduction (T/C) AUCD3-D7 (BDix rats; [17]): 0.75
- Diarrh: Days > G1 (BDix rats; [18]): 0 days
- Diarrhoea reduction (T/C) >G1D3-D6 (BDix rats; [19]): 0.08
- Diarrhoea reduction (T/C) AUCD3-D7 (BDix rats; [19]): 0.11
- Diarrhoea reduction (T/C) >G1D3-D6 (BDix rats; [20]): 0
- Diarrhoea reduction (T/C) AUCD3-D7 (BDix rats; [20]): 0.03
- Diarrhoea reduction (T/C) >G1D3-D6 (BDix rats; [21]): 0
- Diarrhoea reduction (T/C) AUCD3-D7 (BDix rats; [21]): 0.17
- Diarrhoea reduction (T/C) >G1D3-D6 (BDix rats; [22]): 0
- Diarrhoea reduction (T/C) AUCD3-D7 (BDix rats; [22]): 0.18
- Survival [1, 23]: 8/8
- ΔTVol Day-14 (Rat glioma cells, A15; [23]): 728 ± 93
- T/C Day-14 (Rat glioma cells, A15; [18]): 0.93
- Effect of prednisolone on patupilone exposure ([2]; BDix rats, summary): no evidence that prednisolone interferred with significantly with patupilone exposure

Compound: C[C@]12C=CC(=O)C=C1CC[C@@H]1[C@@H]2C(=O)C[C@@]2(C)[C@H]1CC[C@]2(O)C(=O)CO [prednisone]
- Effect on epothilone B (patupilone)-induced diarrhea [3]: does not seem to have an effect
